According to the NIST ThermoML archive (doi:10.1021/je9006585):
± gives the expanded uncertainty stated by the source.

Settings: Crystal; visual observation

- Normal melting temperature: 142.2 ± 1.5 °C
Structure (SMILES): C[n+]1ccn(CCCn2cc[n+](C)c2)c1.F[P-](F)(F)(F)(F)F.F[P-](F)(F)(F)(F)F
